Article PMC12516686, “Design of 2‑Aminobenzothiazole Derivatives Targeting Trypanosomatid PTR1 by a Multidisciplinary Fragment Hybridization Approach” (Journal of Medicinal Chemistry, 2025)
Where two headings read alike, the source gives them in different places.

Columns and labels:
[1] = test system: THP-1-derived macrophages; assay: Cytotoxicity assay (MTT) on THP-1-derived macrophages; assay type: cell-based, Human; conditions: THP-1 CC50 vs T. brucei EC50
Experimental: Human leukemia cell line THP-1 (ATCC TIB202) cells were cultured in RPMI-1640 medium supplemented with 10% heat-inactivated fetal bovine serum (FBS), 2 mM L-glutamine, 100 IU/mL penicillin/streptomycin, and 20 mM HEPES. The cell line was maintained in a humidified incubator at 37 °C with 5% CO2. Subcultures were performed every 3 days in 20 mL of media at a concentration of 2 × 10^5 cells/mL in a T75 flask. All cell culture reagents were purchased from Lonza Bioscience (Morrisville, NC).
The cytotoxicity of the compounds on THP-1-derived macrophages was assessed using the colorimetric MTT assay (3-(4,5-dimethylthiazol-2-yl)-2,5-diphenyl tetrazolium bromide) as described elsewhere. THP-1 cells were suspended in RPMI complete medium at a density of 1 × 10^6 cells/mL, and 100 μL/well was seeded in a 96-well plate. The cells were differentiated into macrophages by adding 40 ng/mL of phorbol-myristate 13-acetate (PMA, Sigma, Saint Louis, MI, USA) for 24 h, followed by replacement with fresh medium for another 24 h. Subsequently, the cells were incubated with 100 μL of compounds, ranging from 100 to 12.5 μM, diluted in RPMI complete medium. Each condition was tested in triplicate. After 72 h of incubation at 37 °C with 5% CO2, the medium was removed, and 200 μL of 0.5 mg/mL MTT solution diluted in RPMI was added. The plates were incubated for an additional 4 h, after which 160 μL of the media was removed and replaced with 160 μL of 2-propanol. Absorbance was read at 570 nm using a Synergy 2 Multi-Mode Reader (Biotek, Winooski, VT, USA). Cytotoxicity was evaluated by presenting the CC50 (the concentration of the drug that reduces cell viability by 50%) interval or by determining the CC50 value through nonlinear regression analysis using GraphPad Prism version 8.1.1 for Windows (GraphPad Software, San Diego, CA, USA). Results represent the average of at least three independent experiments.

[2] = test system: L. infantum intracellular amastigotes; assay: Activity against L. infantum intracellular amastigotes (luciferase); assay type: cell-based, Leishmania infantum; conditions: for inhibition at 10 µM: Leishmania infantum, read-out: L. infantum % cell growth inhibition
Experimental: Luciferase-expressing L. infantum (MHOM/MA/67/ITMAP-263) axenic amastigotes were cultured in MAA/20 medium at 37 °C with 5% CO2. The parasites were maintained in 5 mL T25 ventilated flasks and subcultured every 7 days at a concentration of 1 × 10^6 cells/mL.
The activity against Leishmania infantum intracellular amastigotes was evaluated following the method described with modifications. THP-1 cells were differentiated into macrophages with PMA as described above. The cells were then infected with L. infantum axenic amastigotes expressing episomal luciferase at a macrophage-to-amastigote ratio of 1:10 for 4 h at 37 °C and 5% CO2. Noninternalized parasites were washed away, and compounds were added at various concentrations to a final volume of 100 μL. A dose–response curve for miltefosine was included in all assays as a quality control. Each condition was tested in quadruplicate. After 72 h of incubation, the medium was replaced with 100 μL of PBS, and 25 μL of Glo-lysis buffer from the Steady-Glo Luciferase Assay System (Promega, Madison, WI, USA) was added. The plates were agitated at 100 rpm for 10 min at room temperature. Subsequently, 30 μL of the Steady-Glo reagent (Promega, Madison, WI, USA) was added and incubated for 15 min in the dark under the same conditions. A total of 140 μL from each well was transferred to white-bottom 96-well plates, and luminescence intensity was measured using a Synergy 2 multimode reader (Biotek, Winooski, VT, USA). The antileishmanial effect was evaluated by comparison of the nontreated infected cells. The IC50 was determined (for miltefosine) through nonlinear regression analysis using GraphPad Prism version 8.1.1 for Windows (GraphPad Software, San Diego, CA, USA). Results represent the average of at least three independent experiments.

[3] = at 10 μM, intracellular amastigotes

Nc1nc2ccc(C(=O)NCCc3ccc(Cl)c(Cl)c3)cc2s1 [Compound 1a, 2-amino-N-(3,4-dichlorophenethyl)benzo[d]thiazole-6-carboxamide]
Selectivity index toward THP-1 cells [1]: over 16
inhibition at 10 µM [2, 3]: < 0%
L. infantum % cell growth inhibition [2, 3]: inactive

Nc1nc2ccc(C(=O)N(CCc3ccc(Cl)c(Cl)c3)C3CC3)cc2s1 [Compound 1b, 2-amino-N-cyclopropyl-N-(3,4-dichlorophenethyl)benzo[d]thiazole-6-carboxamide]
Selectivity index toward THP-1 cells [1]: 5−10
inhibition at 10 µM [2, 3]: ~50%
L. infantum % cell growth inhibition [2, 3]: 46±13%

Nc1nc2ccc(C(=O)N(Cc3ccc(Cl)c(Cl)c3)C3CC3)cc2s1 [Compound 1c, 2-amino-N-cyclopropyl-N-(3,4-dichlorobenzyl)benzo[d]thiazole-6-carboxamide]
inhibition at 10 µM [2, 3]: 24 ± 3%

Nc1nc2ccc(CN(Cc3ccc(Cl)c(Cl)c3)C3CC3)cc2s1 [Compound 1d, 6-((cyclopropyl(3,4-dichlorobenzyl)amino)methyl)benzo[_d_]thiazol-2-amine]
inhibition at 10 µM [2, 3]: < 0%

Nc1nc2ccc(C(=O)N(CCc3ccc(Cl)c(Cl)c3)c3ccccc3)cc2s1 [Compound 1e, 2-amino-N-(3,4-dichlorophenethyl)-N-phenylbenzo[d]thiazole-6-carboxamide]
inhibition at 10 µM [2, 3]: < 0%

Nc1nc2ccc(C(=O)NCCc3ccccc3)cc2s1 [Compound 2a, 2-amino-N-phenethylbenzo[d]thiazole-6-carboxamide]
inhibition at 10 µM [2, 3]: < 0%

Nc1nc2ccc(C(=O)NCCc3cccc(Cl)c3)cc2s1 [Compound 2b, 2-amino-N-(3-chlorophenethyl)benzo[d]thiazole-6-carboxamide]
inhibition at 10 µM [2]: < 0%

Nc1nc2ccc(C(=O)NCCc3ccc(Cl)cc3)cc2s1 [Compound 2c, 2-amino-N-(4-chlorophenethyl)benzo[d]thiazole-6-carboxamide]
inhibition at 10 µM [2, 3]: < 0%

Nc1nc2ccc(C(=O)NCCc3cccc(Br)c3)cc2s1 [Compound 2d, 2-amino-N-(3-bromophenethyl)benzo[d]thiazole-6-carboxamide]
inhibition at 10 µM [2, 3]: < 0%

Nc1nc2ccc(C(=O)NCCc3ccc(Br)cc3)cc2s1 [Compound 2e, 2-amino-N-(4-bromophenethyl)benzo[d]thiazole-6-carboxamide]
inhibition at 10 µM [2, 3]: < 0%

Nc1nc2ccccc2n1Cc1ccc(Cl)c(Cl)c1 [I, 1-(3,4-dichlorobenzyl)-1H-benzimidazol-2-amine, reference compound]
inhibition at 10 µM [2, 3]: 29 ± 2%
